Among the data in PubChem BioAssay AID449762 (Southern Research Specialized Biocontainment Screening …, 2010) are IC50 and IC90 values, retold here.

This experiment deals with M. tuberculosis H37Rv growth inhibition, 7H9 media. In words: M. tuberculosis growth inhibition, HTS (AID 449762).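 On all read-outs here: bacterial growth assessed after seven days of incubation.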 The note with it: for IC90: measured here: IC90 growth inhibition.

Inconclusive results are not listed. Bounds are passed on as bounds.

The IC50 is the midpoint of a concentration-inhibition curve. The IC90 is the concentration needed for an effect of 90%. With `COc1cc(/C=C2\C(=O)N(c3ccc(S(N)(=O)=O)cc3)N=C2C)ccc1OC(=O)c1ccco1`, the IC50 is 16.2 µM and the 90% effect concentration (IC90) was 22.6 µM. As for `Cc1ccc(C(c2nnnn2Cc2cccs2)N2CCN(Cc3ccc4c(c3)OCO4)CC2)cc1` (stereo unspecified), the IC50 is 21 µM and the IC90 amounted to 27.9 µM.

Take `CO[C@@H]1[C@@H](OC(N)=O)[C@@H](O)C(Oc2ccc3c(O)c(NC(=O)c4ccc(O)c(CC=C(C)C)c4)c(=O)oc3c2C)OC1(C)C` (stereo partly specified): the IC50 was 4.98 µM and the IC90 stood at 9.66 µM. For `CN1CC=C(/C=C/c2ccc(-c3ccccc3)cc2)CC1` the same measures were 20.1 µM and 26.9 µM.

As for `CN1C(=O)/C(=C/c2ccccc2Cl)Sc2ccc(C(=O)NCc3cccnc3)cc21`, the IC50 was 23.2 µM and the concentration for an effect of 90% (IC90) turned out to be 68.9 µM. For `Cc1[nH]n(S(=O)(=O)Cc2ccccc2)c(=O)c1N=Nc1ccccc1Cl` the same measures were 5.57 µM and 8.53 µM.

For `COc1cc(C#Cc2c(-c3cncn3C)n(C)c3ccc(-c4cnc(N5CCOCC5)nc4)cc23)cc(OC)c1`, the IC50 was 45.8 µM and the IC90 was 51.7 µM. `Cc1ccc(NC(=O)c2cnc(SCC(=O)NCC3CCCO3)n(C)c2=O)cc1C` (stereo unspecified): the IC50 is 9.73 µM and the IC90 was determined as 35.1 µM.

For the compound `CCOC(=O)c1ccc(N=c2sc(C(=O)OC)cc(=O)n2CCCN2CCOCC2)cc1`, the 50% inhibitory concentration (IC50) was 4.52 µM and the IC90 amounted to 12 µM. For `CCOC(=O)c1ccc(NC(=O)Cn2ncc(Cl)c(Cl)c2=O)cc1` the same measures were under 0.2 µM and 0.44 µM. For `Cc1cc(C)n(-c2nc(Nc3ccccc3C(F)(F)F)nc(-n3nc(C)cc3C)n2)n1` the same measures were 0.65 µM and 1.56 µM. Regarding `COc1ccc(-c2nsc3c(N4CCCCC4C)ncnc23)cc1` (stereo unspecified), the 50% inhibitory concentration (IC50) was 41.2 µM and the IC90 came out at 56.8 µM. For `CCCCCCCCSc1nnc(CSc2nc3nc(C)cc(C)n3n2)o1` the same measures were 1.05 µM and 8.29 µM. `COc1ccc(N=N/C(=C\O)C(=O)c2cccs2)cc1` registered an IC90 of over 100 µM. Turning to `C/C(=N\N=C(/N)SC1CC(=O)N(c2ccc(Cl)cc2)C1=O)c1cccs1` (stereo unspecified), the half-inhibitory concentration (IC50) was 33 µM and the 90% effect concentration (IC90) was over 100 µM. For `COc1ccccc1N1CCN(c2ccc(-c3ccccc3)nn2)CC1` the same measures were 84.4 µM and over 100 µM.

In the case of `CCn1c(=O)c(CCC(=O)N2CCN(c3ccccn3)CC2)c(C)c2c(C)nn(-c3cccc(C)c3)c21`, the half-inhibitory concentration (IC50) was 19.5 µM and the 90% effect concentration (IC90) amounted to 27.5 µM.

For the compound `CCOC(=O)c1ccc(NC2=CC(=O)C(=O)c3ccccc32)cc1`, the concentration for half-maximal inhibition (IC50) is 31.7 µM and the IC90 was found to be 39.7 µM. Taken in the same sequence, the figures for `O=C(NCC1CCN(c2ccc(S(=O)(=O)N3CCOCC3)cc2)CC1)c1ccc(Cl)cc1` were 31.9 µM and 51.8 µM.

Regarding `Nc1nc(Cl)cc(N2CCC(c3cc(-c4ccc(Cl)cc4Cl)n[nH]3)CC2)n1`, the concentration for half-maximal inhibition (IC50) was 22.9 µM and the concentration for an effect of 90% (IC90) came to 25.9 µM.

On to `Cn1c(=O)c(C(=O)NNC(=O)c2cccc(Cl)c2)c(O)c2ccccc21`, for which the IC50 was 0.8 µM and the concentration for an effect of 90% (IC90) worked out at 1.28 µM.

With `c1ccc(-c2ccccc2OCCCCn2ccnc2)cc1`, the concentration for half-maximal inhibition (IC50) is 12.8 µM and the concentration for an effect of 90% (IC90) is 25.6 µM.

For the compound `Cc1nc(S/C(=C/c2ccc(-c3ccc(Cl)cc3)o2)C(=O)O)n[nH]1`, the IC50 is 18.4 µM and the IC90 was over 100 µM. Consider `O=C(CCl)N1CCCC1c1ccc2c(c1)OCCO2` (stereo unspecified), for which the IC50 is 3.45 µM and the concentration for an effect of 90% (IC90) was 9.07 µM. Taken in the same sequence, the figures for `CCOC(=O)c1cc2cc3ccccc3cc2oc1=O` were 34 µM and over 100 µM. For `O=C(Nc1ccccc1)C1=C[C@@H](C2CCCCC2)C[C@@H](OCc2ccc(CO)cc2)O1` the same measures were 45 µM and 50.2 µM.

Consider `COc1ccc(COC(=O)CCNC(=O)c2ccc(Cl)cc2)cc1`, for which the IC50 was 58.7 µM and the IC90 was over 100 µM. For the compound `O=C(O)C1CC=CCC1C(=O)N1CCN(c2nc(-c3ccccc3Cl)c3cc(Br)ccc3n2)CC1` (stereo unspecified), the half-maximal inhibitory concentration (IC50) was 46.4 µM and the IC90 turned out to be 78.5 µM.

For the compound `CC(C)(C)CC(C)(C)c1ccc(OCCOCC[N+](C)(C)Cc2ccccc2)cc1`, the half-inhibitory concentration (IC50) was 26.2 µM and the IC90 is 30 µM. For `Cc1nc2sccn2c(=O)c1CCN1CCC(=C(c2ccccc2)c2ccc(F)cc2)CC1` the same measures were 44.7 µM and 49.9 µM. Taken in the same sequence, the figures for `Brc1cccc2sc(N3CCN(c4ccccc4)CC3)nc12` were 44.5 µM and over 100 µM.

For `COc1ccc(-c2cc3nc(CCl)[nH]c(=O)c3s2)cc1`, the concentration for half-maximal inhibition (IC50) is 0.88 µM and the IC90 was 14.5 µM.

Take `CN(C)CCCN1c2ccccc2Sc2ccc(Cl)cc21`: the half-inhibitory concentration (IC50) was 51.6 µM and the IC90 came out at 59 µM. For `O=C(COC(=O)C1=COCCO1)NCc1ccc(Cl)cc1` the same measures were 14.8 µM and over 100 µM. Consider `c1ccc(CN2CCC(Nc3nc(-c4ccccc4)nc4ccccc34)CC2)cc1`, for which the half-maximal inhibitory concentration (IC50) is 10.3 µM and the IC90 was 16.3 µM. For the compound `Cc1cc2c(ccc3c2no[n+]3[O-])nn1`, the half-maximal inhibitory concentration (IC50) was 11.6 µM and the concentration for an effect of 90% (IC90) was 14.6 µM.

As to `COc1ccc(Cc2nnc(SCC(=O)N(c3ccccc3)C(C)C)n(N)c2=O)cc1`, the IC50 was 40.9 µM and the 90% effect concentration (IC90) stood at 74.4 µM.

For the compound `COc1ccc2c(c1)[C@@H]1[C@H](CO2)[C@H](c2ccccc2)[C@]2(C)C(=O)Nc3ccc(C)cc3C(=O)N12`, the IC50 was 49.5 µM and the concentration for an effect of 90% (IC90) was over 100 µM.

Take `O=C(NCCN1CCN(c2cccc(Cl)c2)CC1)c1ccc(CSc2nc3ccncc3[nH]2)cc1`: the IC50 is 23.2 µM and the 90% effect concentration (IC90) is 35.3 µM. Taken in the same sequence, the figures for `Nc1ccc(C(=O)OCCCc2nc3cc4ccccc4cc3[nH]2)cc1` were 45.6 µM and 51.7 µM. Taken in the same sequence, the figures for `C/C(=N\NC(N)=S)c1ccc(Cl)s1` were 12 µM and 17.7 µM. As to `c1ccc(Cn2c(CNc3nc4ccccc4n3CCN3CCCCC3)nc3ccccc32)cc1`, the IC50 is 33.8 µM and the 90% effect concentration (IC90) was found to be 43.9 µM. For `O=c1cc(-c2ccccc2Cl)oc2ccc([N+](=O)[O-])c(O)c12` the same measures were 11.9 µM and 15.6 µM. Taken in the same sequence, the figures for `CCOc1ccc(N(C(=O)/C=C/C(=O)Nc2cc(C)on2)C(C(=O)NC2CCCC2)c2ccccc2C)cc1` (stereo unspecified) were 65.9 µM and over 100 µM. Taken in the same sequence, the figures for `C=C(C)CSc1cc(C)c(C#N)c2nc3ccccc3n12` were 34.3 µM and 48.1 µM. For the compound `COc1cccc(-c2cnc(NCc3cc(Cl)ccc3O)n2C)c1`, the IC50 is 19.1 µM and the 90% effect concentration (IC90) is 22.9 µM.

Turning to `CCOC(=O)CNC(=S)n1cnc(N)n1`, the concentration for half-maximal inhibition (IC50) is 27.8 µM and the IC90 worked out at 60.6 µM. `CCOc1cc(/C=N\NC(=O)Cn2nc([N+](=O)[O-])cc2C)ccc1OCc1cccc2ccccc12` had a 90% effect concentration (IC90) of over 100 µM. For the compound `CCCC1CC(C)(c2csc(Nc3ccc(OCC)cc3)n2)OC1=O` (stereo unspecified), the IC50 is 33.5 µM and the IC90 was 46.5 µM. For the compound `CCCOc1ccc(C(=O)NC(=S)NCc2cccnc2)cc1`, the IC50 was 21.2 µM and the concentration for an effect of 90% (IC90) was 28 µM. Turning to `CSc1ccccc1OCc1cc(C(=O)N2CCC(Oc3cccnc3)CC2)no1`, the IC50 was 24 µM and the IC90 worked out at 27.6 µM. Take `N=c1oc2cc(O)ccc2cc1C(=O)Nc1ccc(Br)cc1`: the IC50 is 0.86 µM and the IC90 came to 4.2 µM.

Regarding `COC(=O)c1[nH]c2cc(OC)ccc2c1NC(=O)CN1CCN(c2cccc(C)c2)C(C)C1` (stereo unspecified), the IC50 was 26.6 µM and the concentration for an effect of 90% (IC90) amounted to 40.2 µM. With `COc1ccc(-n2cc(CNCCc3cscn3)c(-c3ccccc3Cl)n2)cc1`, the IC50 was 25.6 µM and the 90% effect concentration (IC90) was 29.7 µM. Taken in the same sequence, the figures for `CC(C)OC(=O)/C(C#N)=C/c1ccc(-c2ccc(SC(F)F)cc2)o1` were 5.28 µM and 16.8 µM. On to `Cc1ccc(OCCCCNC2CCCC(C)C2C)c(C)c1` (stereo unspecified), for which the IC50 was 21.8 µM and the concentration for an effect of 90% (IC90) was found to be 24.2 µM.

On to `Brc1ccc(-c2nc3ncccn3c2Nc2ccc3c(c2)OCCO3)o1`, for which the IC50 is 59.2 µM and the IC90 is 90.2 µM. For `O=C(NNc1nc2ccccc2s1)c1ccccc1F` the same measures were 22.2 µM and over 100 µM.

`CCCCCCCC(=O)N/N=C(/C)c1c(O)cc(C)oc1=O` came in with an IC90 of over 100 µM. On to `c1ccc(CSc2ccc(-c3ccccn3)nn2)cc1`, for which the IC50 is 23.4 µM and the concentration for an effect of 90% (IC90) is 26.9 µM.

With `CCCCOCCCn1c(-c2ccco2)nc2nc3ccccc3nc21`, the half-maximal inhibitory concentration (IC50) is 94.9 µM and the IC90 was over 100 µM. For `c1ccc(CCNc2ncnc3c2cnn3-c2ccccc2)cc1` the same measures were 22.1 µM and over 50 µM. For `COC(=O)c1ccc(CSc2nc(C(F)(F)F)c3c(c2C#N)CCC3)o1`, the IC50 is 47.1 µM and the IC90 was over 100 µM. Regarding `Cc1ccccc1C(=O)Nc1ccc(N(C)C)c2ccccc12`, the IC50 was 16.6 µM and the IC90 is over 100 µM. In the case of `C#C[C@]1(O)CC[C@H]2[C@@H]3CCc4cc(OC5CCCC5)ccc4[C@H]3CC[C@@]21C`, the 50% inhibitory concentration (IC50) is 35.5 µM and the IC90 was determined as 48 µM. For `Cc1ccc(C(=O)c2cc(C)sc2NC(=O)CN2CCN(C(=O)c3ccco3)CC2)cc1` the same measures were 3.81 µM and 12 µM. For `CCOC1OC(=O)C(Cl)=C1Nc1ccccc1C` (stereo unspecified) the same measures were 2.91 µM and 6.18 µM.

`COc1ccc(C(CC(=O)c2ccccc2)S(=O)(=O)c2ccc(C)cc2)cc1` (stereo unspecified): the IC50 is 20.2 µM and the concentration for an effect of 90% (IC90) was determined as 29.4 µM. As for `O=C(Nc1cccc(Cl)c1)N1CCN(C/C=C/c2ccccc2)CC1`, the 50% inhibitory concentration (IC50) was 37.5 µM and the 90% effect concentration (IC90) came out at 52.7 µM. As to `Cc1c([N+](=O)[O-])cnc(Sc2ccccc2)c1[N+](=O)[O-]`, the half-maximal inhibitory concentration (IC50) was 2.01 µM and the IC90 amounted to 7.59 µM. Taken in the same sequence, the figures for `O=C(CCl)NCCCCCCCCCNC(=O)CCl` were under 0.2 µM and under 0.2 µM. Consider `CC(=O)c1c(C)n(C)c2ccc(OC(=O)c3ccc([N+](=O)[O-])cc3)cc12`, for which the IC50 was 11.2 µM and the concentration for an effect of 90% (IC90) was over 100 µM.
